Experimental data taken from patent publication US20240245673A1, “Papain-like protease (PLpro) inhibitors” (Pfizer Inc., priority 2022, published 2024).
Read-outs that look alike come from different tables or passages of the source.

Molecular target: SARS-CoV-2 Papain like protease (PLpro) (Severe acute respiratory syndrome coronavirus 2 (2019-nCoV) (SARS-CoV-2), UniProt P0DTD1)
Assay: Papain Like Protease (PLpro) biochemical assay with profluorogenic substrate Z-RLRGG-AMC
Settings: SARS-CoV-2 PLpro 6.25 nM, 25 μM Z-RLRGG-AMC substrate, 60 minute reaction

SMILES: CCn1cc(-c2cc(C(C)NC(=O)c3ccccc3C)c3ccccc3n2)cn1 (stereo not shown) [Example 110, N-{1-[2-(1-ethyl-1H-pyrazol-4-yl)quinolin-4-yl]ethyl}-2-methylbenzamide]
- IC50 (IC50 (μM)): 0.224 µM

SMILES: Cc1ccccc1C(=O)NC(C)c1cc(-c2ccc3nonc3c2)nc2ccccc12 (stereo not shown) [Example 111, N-{1-[2-(2,1,3-benzoxadiazol-5-yl)quinolin-4-yl]ethyl}-2-methylbenzamide]
- IC50 (read-out: IC50): 17.3 µM

SMILES: COCCn1cc(-c2cc(C(C)NC(=O)c3ccccc3C)c3ccccc3n2)cn1 (stereo not shown) [Example 112, N-(1-{2-[1-(2-methoxyethyl)-1H-pyrazol-4-yl]quinolin-4-yl}ethyl)-2-methylbenzamide]
- IC50 (read-out: IC50): 0.294 µM

SMILES: Cc1ccccc1C(=O)NC(C)c1cc(-c2cnn(C(C)(C)C)c2)nc2ccccc12 (stereo not shown) [Example 113, N-{1-[2-(1-tert-butyl-1H-pyrazol-4-yl)quinolin-4-yl]ethyl}-2-methylbenzamide]
- IC50 (read-out: IC50): 0.79 µM

SMILES: Cc1ccccc1C(=O)NC(C)c1cc(-c2cccnc2)nc2ccccc12 (stereo not shown) [Example 114, 2-methyl-N-{1-[2-(pyridin-3-yl)quinolin-4-yl]ethyl}benzamide]
- IC50 (read-out: IC50): 0.877 µM

SMILES: CCn1cc(-c2cc(C(C)NC(=O)c3ccccc3C)c3ccccc3n2)c(C)n1 (stereo not shown) [Example 115, N-{1-[2-(1-ethyl-3-methyl-1H-pyrazol-4-yl)quinolin-4-yl]ethyl}-2-methylbenzamide]
- IC50 (read-out: IC50): 1.08 µM

SMILES: Cc1ccccc1C(=O)NC(C)c1cc(-c2ccc3oc(=O)[nH]c3c2)nc2ccccc12 (stereo not shown) [Example 116, 2-methyl-N-{1-[2-(2-oxo-2,3-dihydro-1,3-benzoxazol-5-yl)quinolin-4-yl]ethyl} benzamide]
- IC50 (read-out: IC50): 0.406 µM

SMILES: Cc1cc(-c2cc(C(C)NC(=O)c3ccccc3C)c3ccccc3n2)c[nH]1 (stereo not shown) [Example 117, 2-methyl-N-{1-[2-(5-methyl-1H-pyrrol-3-yl)quinolin-4-yl]ethyl}benzamide]
- IC50 (read-out: IC50): 0.412 µM

SMILES: Cc1ccccc1C(=O)NC(C)c1cc(-c2ccc3ncnn3c2)nc2ccccc12 (stereo not shown) [Example 118, 2-methyl-N-{1-[2-([1,2,4]triazolo[1,5-a]pyridin-6-yl)quinolin-4-yl]ethyl}benzamide]
- IC50 (read-out: IC50): 1.32 µM

SMILES: Cc1ccccc1C(=O)NC(C)c1cc(-c2ccsc2)nc2ccccc12 (stereo not shown) [Example 119, 2-methyl-N-{1-[2-(thiophen-3-yl)quinolin-4-yl]ethyl} benzamide]
- IC50 (read-out: IC50): 0.244 µM

SMILES: Cc1ccccc1C(=O)NC(C)c1cc(-c2cnn(CC(F)F)c2)nc2ccccc12 (stereo not shown) [Example 120, N-(1-{2-[1-(2,2-difluoroethyl)-1H-pyrazol-4-yl]quinolin-4-yl}ethyl)-2-methylbenzamide]
- IC50 (read-out: IC50): 0.345 µM

SMILES: COCCn1nc(C)c(-c2cc(C(C)NC(=O)c3ccccc3C)c3ccccc3n2)c1C (stereo not shown) [Example 121, N-(1-{2-[1-(2-methoxyethyl)-3,5-dimethyl-1H-pyrazol-4-yl]quinolin-4-yl}ethyl)-2-methylbenzamide]
- IC50 (read-out: IC50): 1.42 µM

SMILES: Cc1ccccc1C(=O)NC(C)c1cc(-c2ccc(NS(C)(=O)=O)cc2)nc2ccccc12 (stereo not shown) [Example 122, N-[1-(2-{4-[(methanesulfonyl)amino]phenyl}quinolin-4-yl)ethyl]-2-methylbenzamide]
- IC50 (read-out: IC50): 0.201 µM

SMILES: Cc1ccccc1C(=O)NC(C)c1cc(-c2cnn(CC3(C#N)CC3)c2)nc2ccccc12 (stereo not shown) [Example 123, N-[1-(2-{1-[(1-cyanocyclopropyl)methyl]-1H-pyrazol-4-yl}quinolin-4-yl)ethyl]-2-methylbenzamide]
- IC50 (read-out: IC50): 0.329 µM

SMILES: Cc1ccccc1C(=O)NC(C)c1cc(-c2cc(C(C)C)no2)nc2ccccc12 (stereo not shown) [Example 124, 2-methyl-N-(1-{2-[3-(propan-2-yl)-1,2-oxazol-5-yl]quinolin-4-yl}ethyl)benzamide]
- IC50 (read-out: IC50): 0.635 µM

SMILES: Cc1ccccc1C(=O)NC(C)c1cc(-c2cnn(CCN3CCOCC3)c2)nc2ccccc12 (stereo not shown) [Example 125, 2-methyl-N-[1-(2-{1-[2-(morpholin-4-yl)ethyl]-1H-pyrazol-4-yl}quinolin-4-yl)ethyl]benzamide]
- IC50 (read-out: IC50): 0.294 µM

SMILES: Cc1ccccc1C(=O)NC(C)c1cc(-c2cn(C)nc2C)nc2ccccc12 (stereo not shown) [Example 126, N-{1-[2-(1,3-dimethyl-1H-pyrazol-4-yl)quinolin-4-yl]ethyl}-2-methylbenzamide]
- IC50 (read-out: IC50): 0.845 µM

SMILES: Cc1ccccc1C(=O)NC(C)c1cc(-c2ccc(N)nc2)nc2ccccc12 (stereo not shown) [Example 127, N-{1-[2-(6-aminopyridin-3-yl)quinolin-4-yl]ethyl}-2-methylbenzamide]
- IC50 (read-out: IC50): 1.82 µM

SMILES: COC(=O)c1c[nH]c(-c2cc(C(C)NC(=O)c3ccccc3C)c3ccccc3n2)c1 (stereo not shown) [Example 128, methyl 5-{4-[1-(2-methylbenzamido)ethyl]quinolin-2-yl}-1H-pyrrole-3-carboxylate]
- IC50 (read-out: IC50): 0.164 µM

SMILES: Cc1ccccc1C(=O)NC(C)c1cc(-c2cnn(C)c2C)nc2ccccc12 (stereo not shown) [Example 129, N-{1-[2-(1,5-dimethyl-1H-pyrazol-4-yl)quinolin-4-yl]ethyl}-2-methylbenzamide]
- IC50 (read-out: IC50): 0.666 µM

SMILES: Cc1ccccc1C(=O)NC(C)c1cc(-c2cncnc2)nc2ccccc12 (stereo not shown) [Example 130, 2-methyl-N-{1-[2-(pyrimidin-5-yl)quinolin-4-yl]ethyl} benzamide]
- IC50 (read-out: IC50): 3.1 µM

SMILES: Cc1ccccc1C(=O)NC(C)c1cc(-c2cnn3cccnc23)nc2ccccc12 (stereo not shown) [Example 131, 2-methyl-N-{1-[2-(pyrazolo [1,5-a]pyrimidin-3-yl)quinolin-4-yl]ethyl}benzamide]
- IC50 (read-out: IC50): 2.91 µM

SMILES: Cc1ccccc1C(=O)NC(C)c1cc(-c2cn(C)nc2C(F)(F)F)nc2ccccc12 (stereo not shown) [Example 132, 2-methyl-N-(1-{2-[1-methyl-3-(trifluoromethyl)-1H-pyrazol-4-yl]quinolin-4-yl}ethyl) benzamide]
- IC50 (read-out: IC50): 0.844 µM

SMILES: COC(=O)c1ccc(-c2cc(C(C)NC(=O)c3ccccc3C)c3ccccc3n2)o1 (stereo not shown) [Example 133, methyl 5-{4-[1-(2-methylbenzamido)ethyl]quinolin-2-yl}furan-2-carboxylate]
- IC50 (read-out: IC50): 0.392 µM

SMILES: Cc1ccccc1C(=O)NC(C)c1cc(-c2ccc3c(c2)nnn3C)nc2ccccc12 (stereo not shown) [Example 134]
- IC50 (read-out: IC50): 0.432 µM

SMILES: Cc1ccccc1C(=O)NC(C)c1cc(-c2cnn(C)n2)nc2ccccc12 (stereo not shown) [Example 135, 2-methyl-N-{1-[2-(2-methyl-2H-1,2,3-triazol-4-yl)quinolin-4-yl]ethyl}benzamide]
- IC50 (read-out: IC50): 0.855 µM

SMILES: Cc1ccccc1C(=O)NC(C)c1cc(-c2cn(C(C)C)nc2C)nc2ccccc12 (stereo not shown) [Example 136, 2-methyl-N-(1-{2-[3-methyl-1-(propan-2-yl)-1H-pyrazol-4-yl]quinolin-4-yl}ethyl) benzamide]
- IC50 (read-out: IC50): 1.41 µM

SMILES: Cc1ccccc1C(=O)NC(C)c1cc(-c2cncc(F)c2)nc2ccccc12 (stereo not shown) [Example 137, N-{1-[2-(5-fluoropyridin-3-yl)quinolin-4-yl]ethyl}-2-methylbenzamide]
- IC50 (read-out: IC50): 1.13 µM

SMILES: Cc1ccccc1C(=O)NC(C)c1cc(NCc2cocn2)nc2ccccc12 (stereo not shown) [Example 138, 2-methyl-N-[1-(2-{[(1,3-oxazol-4-yl)methyl]amino}-quinolin-4-yl)ethyl]benzamide]
- IC50 (read-out: IC50): 0.944 µM

SMILES: Cc1ccccc1C(=O)NC(C)c1cc(NCc2cnco2)nc2ccccc12 (stereo not shown) [Example 139, 2-methyl-N-[1-(2-{[(1,3-oxazol-5-yl)methyl]amino}-quinolin-4-yl)ethyl]benzamide]
- IC50 (read-out: IC50): 0.675 µM

SMILES: Cc1ccccc1C(=O)NC(C)c1cc(NCC2CCCOC2)nc2ccccc12 (stereo not shown) [Example 140, 2-methyl-N-[1-(2-{[(oxan-3-yl)methyl]amino}quinolin-4-yl)ethyl]benzamide]
- IC50 (read-out: IC50): 1.96 µM

SMILES: Cc1ccccc1C(=O)NC(C)c1cc(NCC2CCOCC2)nc2ccccc12 (stereo not shown) [Example 141, 2-methyl-N-[1-(2-{[(oxan-4-yl)methyl]amino}quinolin-4-yl)ethyl]benzamide]
- IC50 (read-out: IC50): 0.778 µM

SMILES: Cc1ccccc1C(=O)NC(C)c1cc(NC2CCOC2)nc2ccccc12 (stereo not shown) [Example 142, 2-methyl-N-(1-{2-[(oxolan-3-yl)amino]quinolin-4-yl}ethyl)benzamide]
- IC50 (read-out: IC50): 0.9 µM

SMILES: Cc1ccccc1C(=O)NC(C)c1cc(N(C)CCC(=O)N(C)C)nc2ccccc12 (stereo not shown) [Example 143, N-[1-(2-{[3-(dimethylamino)-3-oxopropyl](methyl)amino}-quinolin-4-yl)ethyl]-2-methylbenzamide]
- IC50 (read-out: IC50): 8.48 µM

SMILES: Cc1ccccc1C(=O)NC(C)c1cc(NCC2CCS(=O)(=O)CC2)nc2ccccc12 (stereo not shown) [Example 144, N-(1-(2-(((1,1-dioxidotetrahydro-2H-thiopyran-4-yl)methyl)-amino)quinolin-4-yl)ethyl)-2-methylbenzamide]
- IC50 (read-out: IC50): 1.11 µM

SMILES: Cc1ccccc1C(=O)NC(C)c1cc(NC2(C#N)CC2)nc2ccccc12 (stereo not shown) [Example 145, N-(1-{2-[(1-cyanocyclopropyl)amino]quinolin-4-yl}ethyl)-2-methylbenzamide]
- IC50 (read-out: IC50): 2.52 µM

SMILES: Cc1ccccc1C(=O)NC(C)c1cc(NCC(=O)N2CCOCC2)nc2ccccc12 (stereo not shown) [Example 146, 2-methyl-N-[1-(2-{[2-(morpholin-4-yl)-2-oxoethyl]amino}-quinolin-4-yl)ethyl]benzamide]
- IC50 (read-out: IC50): 4.5 µM

SMILES: Cc1ccccc1C(=O)NC(C)c1cc(NC2CCCOC2)nc2ccccc12 (stereo not shown) [Example 147]
- IC50 (read-out: IC50): 0.909 µM

SMILES: Cc1ccccc1C(=O)NC(C)c1cc(NCCS(=O)(=O)N(C)C)nc2ccccc12 (stereo not shown) [Example 148, N-[1-(2-{[2-(dimethylsulfamoyl)ethyl]amino}quinolin-4-yl)ethyl]-2-methylbenzamide]
- IC50 (read-out: IC50): 1.77 µM

SMILES: CCN(CCOC)c1cc(C(C)NC(=O)c2ccccc2C)c2ccccc2n1 (stereo not shown) [Example 149, N-(1-{2-[ethyl(2-methoxyethyl)amino]quinolin-4-yl}ethyl)-2-methylbenzamide]
- IC50 (read-out: IC50): 2.17 µM

SMILES: Cc1ccccc1C(=O)NC(C)c1cc(NCC2CCN(S(C)(=O)=O)CC2)nc2ccccc12 (stereo not shown) [Example 150]
- IC50 (read-out: IC50): 1.07 µM

SMILES: Cc1ccccc1C(=O)NC(C)c1cc(N2CCC(S(=O)(=O)N(C)C)CC2)nc2ccccc12 (stereo not shown) [Example 151, N-(1-{2-[4-(dimethylsulfamoyl)piperidin-1-yl]quinolin-4-yl}ethyl)-2-methylbenzamide]
- IC50 (read-out: IC50): 1.46 µM

SMILES: Cc1cc(CC(=O)O)ccc1C(=O)N[C@H](C)c1cc(-c2cnn(C)c2)nc2ccccc12 [Example 200, (R)-2-(3-methyl-4-((1-(2-(1-methyl-1H-pyrazol-4-yl)quinolin-4-yl)ethyl)carbamoyl)phenyl)acetic acid]
- IC50 (read-out: IC50): 0.792 µM
